Test results from US12344610B2, “APOL1 inhibitors and methods of use” (Maze Therapeutics, Inc., priority 2022, dated 2025).
Like-named read-outs stand apart in the source and are kept apart here.

Assays:
Type in all cases: cell-based
[1] = tested on: HEK293 clonal cell line overexpressing APOL1 G1; experiment: APOL1 G1 HEK293 cell rescue assay (Example B3); details: geometric mean of at least 2 runs, † = single run, ¥ = concentration at 50% rescue estimated (no sigmoidal curve)
How it was run: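 HEK293 clonal line overexpressing APOL1 G1; EC50 is half-maximal reversal of APOL1-induced cell death. Values are the geometric mean of ≥2 runs on separate days, each run the average of duplicate wells. Where no sigmoidal curve could be fitted, the concentration giving 50% rescue was estimated.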

[2] = tested on: Trypanosoma brucei Lister 427 VSG221 with APOL1 G1 recombinant protein; experiment: APOL1 G1 trypanosome cell rescue assay (Example B5); details: geometric mean of at least 2 assay runs, † = single assay run
How it was run: (§1)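 Recombinant mature APOL1 (residues 28-398, His-tag removed, E. coli-expressed, refolded from inclusion bodies, DDM buffer) at […] added with 250 trypanosomes/well in modified HMI-9 media. Duplicate 11-point 2-fold compound series, 0.4% DMSO; 20 h at 37° C, 5% CO2, then CellTiter-Glo luminescence for viability.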

[3] = tested on: Trypanosoma brucei Lister 427 VSG221 with APOL1 G0 recombinant protein; experiment: APOL1 G0 trypanosome cell rescue assay (Example B5); details: geometric mean of at least 2 assay runs, † = single assay run
How it was run: as §1

[4] = tested on: Trypanosoma brucei Lister 427 VSG221 with APOL1 G2 recombinant protein; experiment: APOL1 G2 trypanosome cell rescue assay (Example B5); details: geometric mean of at least 2 assay runs, † = single assay run
How it was run: as §1

[5] = Homo sapiens, HEK293, HEK293 clonal line overexpressing APOL1 G1
[6] = Trypanosoma brucei, 20 h, read-out: APOL1 G1 Trypanosome Rescue EC50, Trypanosoma brucei Lister 427 VSG221 with APOL1 G1 recombinant protein, 20 hours, CellTiter-Glo
[7] = Trypanosoma brucei, 20 h, read-out: APOL1 G0 Trypanosome Rescue EC50, Trypanosoma brucei Lister 427 VSG221 with APOL1 G0 recombinant protein, 20 hours, CellTiter-Glo
[8] = Trypanosoma brucei, 20 h, read-out: APOL1 G2 Trypanosome Rescue EC50, Trypanosoma brucei Lister 427 VSG221 with APOL1 G2 recombinant protein, 20 hours, CellTiter-Glo
[9] = HEK293 clonal line overexpressing APOL1 G1
[10] = read-out: APOL1 G1 Trypanosome Rescue EC50, Trypanosoma brucei Lister 427 VSG221 with APOL1 G1 recombinant protein, 20 hours, CellTiter-Glo
[11] = read-out: APOL1 G0 Trypanosome Rescue EC50, Trypanosoma brucei Lister 427 VSG221 with APOL1 G0 recombinant protein, 20 hours, CellTiter-Glo
[12] = read-out: APOL1 G2 Trypanosome Rescue EC50, Trypanosoma brucei Lister 427 VSG221 with APOL1 G2 recombinant protein, 20 hours, CellTiter-Glo

SMILES	EC50 [1, 5] [nM]	EC50 [2, 6] [nM]	EC50 [3, 7] [nM]	EC50 [4, 8] [nM]	EC50 [1, 9] [nM]	EC50 [2, 10] [nM]	EC50 [3, 11] [nM]	EC50 [4, 12] [nM]
CC(c1c(F)cc(OCCN2CCC3(CC2)C(=O)Nc2ccc(C#N)cc23)cc1F)S(C)(=O)=O (stereo not drawn) [Compound 137, 1′-{2-[3,5-difluoro-4-(1-methanesulfonylethyl)phenoxy]ethyl}-2-oxo-1,2-dihydrospiro[indole-3,4′-piperidine]-5-carbonitrile]	249	454	322	119				
C[C@@H](COc1ccc(S(C)(=O)=O)cc1)N1CCC2(CC1)C(=O)Nc1ccccc12 (single isomer, unassigned) [Compound 12]	1140	1950	1930	494				
CC(c1c(F)cc(OCCN2CCC3(CC2)C(=O)Nc2ccc(Cl)cc23)cc1F)S(C)(=O)=O (single isomer, unassigned) [Compound 143, (R) or (S)-5-chloro-1′-{2-[3,5-difluoro-4-(1-methanesulfonylethyl)phenoxy]ethyl}-1,2-dihydrospiro[indole-3,4′-piperidin]-2-one]					125	64.1	41.1	21.1
O=C1CCC2c3ccc(OCCN4CCC5(CC4)C(=O)Nc4ccc(Cl)cc45)cc3CCN12 (single isomer, unassigned) [Compound 123, (R) or (S)-5-chloro-1′-[2-({3-oxo-1H,2H,3H,5H,6H,10bH-pyrrolo[2,1-a]isoquinolin-8-yl}oxy)ethyl]-1,2-dihydrospiro[indole-3,4′-piperidin]-2-one]					232	258	178	76.9
C[C@@H](CN1CCC2(CC1)C(=O)Nc1ccccc12)Oc1ccc(S(C)(=O)=O)cc1 (single isomer, unassigned) [Compound 13]	> 30000	> 4000	> 4000	> 4000				
CS(=O)(=O)C1(c2ccc(OCCN3CCC4(CC3)C(=O)Nc3ccc(C#N)cc34)cc2)CCC1 [Compound 181, 1′-{2-[4-(1-methanesulfonylcyclobutyl)phenoxy]ethyl}-2-oxo-1,2-dihydrospiro[indole-3,4′-piperidine]-5-carbonitrile]	194	232	158	70.7				
O=C1Nc2ccc(Cl)cc2C12CCN(CCOc1ccc(S(=O)(=O)[C@H]3C[C@@H](O)C3)cc1)CC2 [Compound 17, 5-chloro-1′-[2-(4-{[(cis)-3-hydroxycyclobutyl]sulfonyl}phenoxy)ethyl]-1,2-dihydrospiro[indole-3,4′-piperidin]-2-one]	160	148	108	36.7				
Cc1cc(OCCN2CCC3(CC2)C(=O)Nc2ccc(C#N)cc23)cnc1S(C)(=O)=O [Compound 140, 1′-{2-[(6-methanesulfonyl-5-methylpyridin-3-yl)oxy]ethyl}-2-oxo-1,2-dihydrospiro[indole-3,4′-piperidine]-5-carbonitrile]	600	653	408	164				
CN1c2ccc(OCCN3CCC4(CC3)C(=O)Nc3ccc(Cl)cc34)cc2CCS1(=O)=O [Compound 103, 6-(2-{5-chloro-2-oxo-1,2-dihydrospiro[indole-3,4′-piperidin]-1′-yl}ethoxy)-1-methyl-3,4-dihydro-1H-2λ^6,1-benzothiazine-2,2-dione]	124	170	113	43.7				
CC(C)N1C(=O)Cc2cc(OCCN3CCC4(CC3)C(=O)Nc3ccc(Cl)cc34)ccc21 [Compound 145, 5-chloro-1′-(2-{[2-oxo-1-(propan-2-yl)-2,3-dihydro-1H-indol-5-yl]oxy}ethyl)-1,2-dihydrospiro[indole-3,4′-piperidin]-2-one]	98.5	118	86.5	35.5				
O=C1CCc2cc(OCCN3CCC4(CC3)C(=O)Nc3ccc(Cl)cc34)ccc2N1[C@H]1C[C@@H](O)C1 [Compound 114, 5-chloro-1′-[2-({2-oxo-1-[(cis)-3-hydroxycyclobutyl]-1,2,3,4-tetrahydroquinolin-6-yl}oxy)ethyl]-1,2-dihydrospiro[indole-3,4′-piperidin]-2-one]	128	104	108	38				
Cc1cc(OCCN2CCC3(CC2)C(=O)Nc2ccc(Cl)cc23)cnc1S(C)(=O)=O [Compound 161, 5-chloro-1′-{2-[(6-methanesulfonyl-5-methylpyridin-3-yl)oxy]ethyl}-1,2-dihydrospiro[indole-3,4′-piperidin]-2-one]	135	107	76.3	33.3				
CN1c2ccc(OCCN3CCC4(CC3)C(=O)Nc3ccc(C#N)cc34)cc2CCS1(=O)=O [Compound 104, 1′-{2-[(1-methyl-2,2-dioxo-3,4-dihydro-1H-2λ^6,1-benzothiazin-6-yl)oxy]ethyl}-2-oxo-1,2-dihydrospiro[indole-3,4′-piperidine]-5-carbonitrile]	356	726	583	184				
CS(=O)(=O)C1(c2ccc(OCCN3CCC4(CC3)C(=O)Nc3ccc(Cl)cc34)cc2)CCOCC1 [Compound 188, 5-chloro-1′-{2-[4-(4-methanesulfonyloxan-4-yl)phenoxy]ethyl}-1,2-dihydrospiro[indole-3,4′-piperidin]-2-one]	122	96.5	71	26.7				
CC(C)(c1ccc(OCCN2CCC3(CC2)C(=O)Nc2ccc(C#N)cc23)cn1)S(C)(=O)=O [Compound 191, 1′-(2-{[6-(2-methanesulfonylpropan-2-yl)pyridin-3-yl]oxy}ethyl)-2-oxo-1,2-dihydrospiro[indole-3,4′-piperidine]-5-carbonitrile]	283	304	251	104				
CS(=O)(=O)C1(c2ccc(OCCN3CCC4(CC3)C(=O)Nc3ccc(C#N)cc34)cc2)COC1 [Compound 109, 1′-{2-[4-(3-methanesulfonyloxetan-3-yl)phenoxy]ethyl}-2-oxo-1,2-dihydrospiro[indole-3,4′-piperidine]-5-carbonitrile]	321	385	320	98				
O=C1CCc2cc(OCCN3CCC4(CC3)C(=O)Nc3ccc(Cl)cc34)ccc2N1CC(F)F [Compound 106, 5-chloro-1′-(2-{[1-(2,2-difluoroethyl)-2-oxo-1,2,3,4-tetrahydroquinolin-6-yl]oxy}ethyl)-1,2-dihydrospiro[indole-3,4′-piperidin]-2-one]	122	91.8	69	23.4				
CC(c1c(F)cc(OCCN2CCC3(CC2)C(=O)Nc2ccc(Cl)cc23)cc1F)S(C)(=O)=O (single isomer, unassigned) [Compound 142, (S) or (R)-5-chloro-1′-{2-[3,5-difluoro-4-(1-methanesulfonylethyl)phenoxy]ethyl}-1,2-dihydrospiro[indole-3,4′-piperidin]-2-one]	192	98.3	63.5	35.3				
CS(=O)(=O)c1ccc(OCCN2CCC3(CC2)C(=O)Nc2ccc(Cl)cc23)cc1OC(F)F [Compound 163, 5-chloro-1′-{2-[3-(difluoromethoxy)-4-methanesulfonylphenoxy]ethyl}-1,2-dihydrospiro[indole-3,4′-piperidin]-2-one]	113	90	55.9	21.2				
CS(=O)(=O)CCCn1ncc2cc(OCCN3CCC4(CC3)C(=O)Nc3ccc(Cl)cc34)ccc21 [Compound 14, 5-chloro-1′-(2-{[1-(3-methanesulfonylpropyl)-1H-indazol-5-yl]oxy}ethyl)-1,2-dihydrospiro[indole-3,4′-piperidin]-2-one]	476	488	378	127				
CN1CCc2cc(OCCN3CCC4(CC3)C(=O)Nc3ccc(C#N)cc34)ccc2S1(=O)=O [Compound 154, 1′-{2-[(2-methyl-1,1-dioxo-3,4-dihydro-2H-1λ^6,2-benzothiazin-6-yl)oxy]ethyl}-2-oxo-1,2-dihydrospiro[indole-3,4′-piperidine]-5-carbonitrile]	252	569	328	160				
